In ChEMBL document CHEMBL6121069, “A Medicinal Chemistry Perspective on Protein Tyrosine Phosphatase Nonreceptor Type 2 in Tumor Immunology” (J Med Chem, 2025):
*1 amine or outer side, *2 acyl side, *3 side chain or, on linkers, in order; H or OH if unused. Where a SMILES comes first, the peptide text is derived from it. [ ]: non-standard residue; d: D form. The star is where a group is joined. NHCH2(1,3-C6H4)CH2CO = O=C(Cc1cccc(CN[*:1])c1)[*:2]; F2Pmp = N[C@@H](Cc1ccc(C(F)(F)P(=O)(O)O)cc1)C(=O)O; Phenylacetyl(4-OH,3-OMe) = COc1cc(CC(=O)*)ccc1O; Benzoyl(3-Br,4-Me) = Cc1ccc(C(=O)*)cc1Br; X1 = Cc1ncsc1-c1ccc([C@H](C)N*)cc1; Hyp = O=C(O)[C@@H]1C[C@@H](O)CN1; Tle = CC(C)(C)[C@H](N)C(=O)O

Legend:
[1] = target: T1, Tyrosine-protein phosphatase non-receptor type 2 (Homo sapiens, UniProt P17706)
T1 sequence (P17706 whole entry): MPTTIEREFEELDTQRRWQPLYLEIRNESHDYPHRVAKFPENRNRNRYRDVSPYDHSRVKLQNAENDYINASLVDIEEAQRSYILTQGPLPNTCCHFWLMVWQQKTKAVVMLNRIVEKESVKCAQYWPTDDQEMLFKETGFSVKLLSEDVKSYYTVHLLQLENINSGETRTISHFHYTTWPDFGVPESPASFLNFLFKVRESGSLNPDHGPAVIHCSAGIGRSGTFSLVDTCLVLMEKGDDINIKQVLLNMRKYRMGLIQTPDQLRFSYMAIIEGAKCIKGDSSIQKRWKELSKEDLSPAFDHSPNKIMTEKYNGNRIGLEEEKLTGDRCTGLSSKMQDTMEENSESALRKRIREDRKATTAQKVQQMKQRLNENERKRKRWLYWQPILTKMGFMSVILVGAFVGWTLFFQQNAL
Description: Inhibition of PTPN2 (unknown origin)

B16-F10 [2] = experiment: cells; conditions: Mus musculus
Description: Antiproliferative activity against mouse B16-F10 cells

[3] = target: T1, Tyrosine-protein phosphatase non-receptor type 2; remark: listed apart in the source
Description: Binding affinity to PTPN2 (unknown origin) assessed as inhibition constant

[4] = target: T2, Tyrosine-protein phosphatase non-receptor type 1 (Homo sapiens, UniProt P18031)
T2 sequence (P18031 whole entry): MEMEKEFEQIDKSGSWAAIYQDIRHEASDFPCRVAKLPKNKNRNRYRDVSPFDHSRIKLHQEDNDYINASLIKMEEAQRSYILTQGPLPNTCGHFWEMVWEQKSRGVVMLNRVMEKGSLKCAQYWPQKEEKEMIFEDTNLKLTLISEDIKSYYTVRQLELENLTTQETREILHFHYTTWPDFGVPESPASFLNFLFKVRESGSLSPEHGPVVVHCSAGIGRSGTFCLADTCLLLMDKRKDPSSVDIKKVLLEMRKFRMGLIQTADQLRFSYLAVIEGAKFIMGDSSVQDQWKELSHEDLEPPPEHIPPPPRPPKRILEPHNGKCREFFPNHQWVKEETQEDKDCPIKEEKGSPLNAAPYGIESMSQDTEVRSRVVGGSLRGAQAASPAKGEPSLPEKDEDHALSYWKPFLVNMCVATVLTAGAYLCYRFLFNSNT
Description: Inhibition of PTP1B (unknown origin)

[5] = target: Protein cereblon/Tyrosine-protein phosphatase non-receptor type 2 (Homo sapiens, UniProt P17706+Q96SW2); conditions: hek293t
Description: PROTAC activity at PTPN2/CRBN in HEK293T cells assessed as protein degradation measured for 48 hrs by Western blot analysis

B16-F10 [6] = experiment: cells; conditions: Mus musculus; remark: listed apart in the source
Description: Antiproliferative activity against mouse B16-F10 cells assessed as inhibition of cell growth

[7] = target: T1, Tyrosine-protein phosphatase non-receptor type 2; remark: listed apart in the source
Description: Inhibition of full length human recombinant PTPN2 by mobility shift assay

Protein cereblon/Tyrosine-protein phosphatase non-receptor type 2, sequence (Q96SW2 whole entry, one chain of several): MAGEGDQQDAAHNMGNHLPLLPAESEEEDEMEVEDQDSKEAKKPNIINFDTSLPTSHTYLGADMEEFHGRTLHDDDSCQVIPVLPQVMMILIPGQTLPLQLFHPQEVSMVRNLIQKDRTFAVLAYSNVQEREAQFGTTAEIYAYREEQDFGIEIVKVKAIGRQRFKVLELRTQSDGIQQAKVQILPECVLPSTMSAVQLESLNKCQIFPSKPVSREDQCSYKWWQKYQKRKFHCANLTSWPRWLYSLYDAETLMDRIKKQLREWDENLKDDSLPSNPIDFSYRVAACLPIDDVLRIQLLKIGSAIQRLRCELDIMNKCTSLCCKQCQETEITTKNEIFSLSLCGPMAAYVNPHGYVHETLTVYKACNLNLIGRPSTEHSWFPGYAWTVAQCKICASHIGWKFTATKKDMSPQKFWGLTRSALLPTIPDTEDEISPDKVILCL

Row | Compound | IC50 [1] | IC50 (B16-F10 [2]) | also measured
1 | O=C1CN(c2c(O)cc3c(c2F)CNCCC3)S(=O)(=O)N1 | 1910 nM |  | 
2 | O=C1CN(c2c(O)cc3c(c2F)C[C@H](NCCC2CCC2)CC3)S(=O)(=O)N1 |  | < 1000 nM | 
3 | CCN1CN(Cc2ccc(Br)cc2)C(=O)S1 | 520 nM |  | 
4 | Cc1ccnc(Nc2cc(O)c(N3CC(=O)NS3(=O)=O)c(F)c2)n1 |  | ≥ 100000 nM | Ki [3]: ≥ 100 nM
5 | CC1Cc2c(cc(O)c(N3CC(=O)NS3(=O)=O)c2F)CCN1 (centres undefined) |  | 270 nM | 
6 | O=C1SN(CCOc2ccc([N+](=O)[O-])cc2)CN1Cc1ccccc1 | 1510 nM |  | 
7 | CC(C)CCCc1cc2c(F)c(N3CC(=O)NS3(=O)=O)c(O)cc2n(C)c1=O | < 1000 nM |  | 
8 | N[C@@H]1CCc2cc(O)c(N3CC(=O)NS3(=O)=O)c(F)c2CC1 | 5.67 nM | 1630 nM | 
9 | O=C1CN(c2c(O)cc3ccccc3c2F)S(=O)(=O)N1 | 11.4 nM |  | IC50 [4]: 8.39 nM
10 | O=C1CN(c2c(O)cc3c(c2F)C[C@H](NCCC2CCCC2)CC3)S(=O)(=O)N1 |  | < 50 nM | 
11 | O=C(CCOCCn1cc(C2(Nc3cccc4c3C(=O)N(C3CCC(=O)NC3=O)C4=O)CC2)nn1)NCCOc1ccc2cc(O)c(N3CC(=O)NS3(=O)=O)c(F)c2c1 (centres undefined) |  |  | DC50 [5]: > 1000 nM
12 | CC(C)CCN[C@@H]1C[C@H]2C[C@@H]1c1c2cc(O)c(N2CC(=O)NS2(=O)=O)c1F |  | 7820 nM | 
13 | CC1(C)CCC(NCc2ccc(O)c(N3CC(=O)NS3(=O)=O)c2F)CC1 | 10000 nM |  | 
14 | O=C1CN(c2c(O)cc(CC3CCCCNC3)cc2F)S(=O)(=O)N1 (centres undefined) |  |  | IC50 (B16-F10 [6]): > 100000 nM
15 | CCN[C@@H]1CCc2cc(O)c(N3CC(=O)NS3(=O)=O)c(F)c2CC1 |  | 54000 nM | 
16 | O=C1CN(c2c(O)cc3c(c2F)C[C@H](NCCCC(F)F)CS3)S(=O)(=O)N1 |  |  | IC50 [7]: 2.6 nM
17 | O=C1CN(c2c(O)cc(CC3CCNC3)cc2F)S(=O)(=O)N1 (centres undefined) |  |  | IC50 (B16-F10 [6]): 7430 nM
18 | CCN1CN(Cc2ccc(I)cc2)C(=O)S1 | 370 nM |  | 
19 | O=C1CN(c2c(O)cc(CC3CCN(CC4CC4)C3)cc2F)S(=O)(=O)N1 (centres undefined) |  |  | IC50 (B16-F10 [6]): 17400 nM

Row | Compound | IC50 [1] | IC50 (B16-F10 [2]) | also measured
20 | O=C1CN(c2c(O)cc3c(c2F)C[C@H](NCCCC(F)F)CO3)S(=O)(=O)N1 |  |  | IC50 [7]: 8.85 nM
21 | O=C1CN(c2c(O)cc3c(c2F)C[C@H](NCCCC(F)(F)F)CC3)S(=O)(=O)N1 | 1 nM | < 50 nM | 
22 | Cc1cc(O)nc(Nc2cc(O)c(N3CC(=O)NS3(=O)=O)c(F)c2)n1 |  | < 5000 nM | Ki [3]: 1 nM
23 | Cn1c(=O)n(C2CCC(=O)NC2=O)c2ccc(C3CCN(C(=O)CNc4ccc5c(F)c(N6CC(=O)NS6(=O)=O)c(O)cc5c4)CC3F)cc21 (centres undefined) |  |  | DC50 [5]: < 10 nM
24 | CC(C)CCN[C@@H]1CNc2cc(O)c(N3CC(=O)NS3(=O)=O)c(F)c2C1 |  | 1450 nM | 
25 | CC(C)CCn1ccc(-c2ccc(O)c(N3CC(=O)NS3(=O)=O)c2F)c1 | < 1000 nM |  | 
26 | O=C1CN(c2c(O)cc3c(c2F)C[C@H](NCCCC(F)F)CC3)S(=O)(=O)N1 | < 1 nM | < 50 nM | IC50 [7]: < 0.1 nM
27 | COc1ccnc(NCc2cc(O)c(N3CC(=O)NS3(=O)=O)c(F)c2)c1 |  | 140 nM | 
28 | CCN1CCc2cc(O)c(N3CC(=O)NS3(=O)=O)c(F)c2CC1C (centres undefined) | 212 nM |  | 
29 | CC(C)CCn1cnc2cc(O)c(N3CC(=O)NS3(=O)=O)c(F)c2c1=O | > 10000 nM |  | 
30 | CC(C)CCN1CCC(Cc2cc(O)c(N3CC(=O)NS3(=O)=O)c(F)c2)C1 (centres undefined) |  |  | IC50 (B16-F10 [6]): 8430 nM
31 | O=C1CN(c2c(O)cc(NC(=O)NC3CCCCC3)cc2F)S(=O)(=O)N1 |  | < 5000 nM | 
32 | CC(C)CCN[C@@H]1CSc2cc(O)c(N3CC(=O)NS3(=O)=O)c(F)c2C1 |  |  | IC50 [7]: 1.34 nM
33 | O=P(O)(O)C(F)(F)c1ccc(CC(Cc2ccc(-c3ccccc3)cc2)(c2ccccc2)n2nnc3ccccc32)cc1 (centres undefined) |  |  | IC50 [4]: 40 nM
34 | CC(C)CCn1ccc(-c2ccc(O)c(N3CC(=O)NS3(=O)=O)c2F)n1 | < 1000 nM |  | 
35 | CCN1CN(Cc2ccc(Cl)cc2)C(=O)S1 | 330 nM |  | 
36 | COc1cc(CC(=O)N[C@@H](Cc2ccccc2)C(=O)N[C@@H](Cc2ccc(C(F)(F)P(=O)(O)O)cc2)C(=O)N[C@@H](CCCCNC(=O)c2ccc(C)c(Br)c2)C(=O)NCc2cccc(CC(=O)N[C@H](C(=O)N3C[C@H](O)C[C@H]3C(=O)N[C@@H](C)c3ccc(-c4scnc4C)cc3)C(C)(C)C)c2)ccc1O ({Phenylacetyl(4-OH,3-OMe)}-F[F2Pmp]K(Benzoyl(3-Br,4-Me))[NHCH2(1,3-C6H4)CH2CO][Tle][Hyp]-X1) |  |  | DC50 [5]: 4.8 nM
37 | Cc1c(O[C@@H]2O[C@H](CO[C@@H]3OC[C@@H](O)[C@H](O)[C@H]3O)[C@@H](O)[C@H](O)[C@H]2O)cc2c(c1O)C(=O)c1ccc(O)c(O)c1C2=O |  |  | IC50 [4]: 78000 nM
